In ChEMBL document CHEMBL4823271, “Synthesis and structure-activity relationship of new chalcone linked 5-phenyl-3-isoxazolecarboxylic acid methyl esters potentially active against drug resistant Mycobacterium tuberculosis” (Eur J Med Chem, 2021):
≈ marks a conversion by molar mass, not a printed value.

Legend:
Format in all cases: functional
[1] = system: Mycobacterium tuberculosis; assay: Antimycobacterial activity against isoniazid-resistant Mycobacterium tuberculosis H37Rv ATCC 35822 assessed as inhibition of bacterial growth incubated for 48 hrs by broth microdilution assay
[2] = system: Mycobacterium tuberculosis; assay: Antimycobacterial activity against Streptomycin-resistant Mycobacterium tuberculosis H37Rv ATCC 35820 assessed as inhibition of bacterial growth incubated for 48 hrs by broth microdilution assay
[3] = system: Mycobacterium tuberculosis; assay: Antimycobacterial activity against ethambutol-resistant Mycobacterium tuberculosis H37Rv ATCC 35837 assessed as inhibition of bacterial growth incubated for 48 hrs by broth microdilution assay
[4] = system: Mycobacterium tuberculosis; assay: Antimycobacterial activity against rifampicin-resistant Mycobacterium tuberculosis H37Rv ATCC 35838 assessed as inhibition of bacterial growth incubated for 48 hrs by broth microdilution assay

SMILES | MIC [1] [µg/mL] | MIC [2] [µg/mL] | MIC [3] [µg/mL] | MIC [4] [µg/mL]
COC(=O)c1cc(-c2cccc(NC(=O)c3ccc(/C=C/C(=O)c4ccc(Cl)cc4Cl)cc3)c2)on1 | > 64 | 1 (≈ 1.92 µM) | > 64 | 64 (≈ 123 µM)
COC(=O)c1cc(-c2cccc(NC(=O)c3ccc(/C=C/C(=O)c4ccc(Cl)cc4)cc3)c2)on1 | > 64 | 2 (≈ 4.11 µM) | > 64 | 2 (≈ 4.11 µM)
COC(=O)c1cc(-c2cccc(NC(=O)c3ccc(/C=C/C(=O)c4ccc(CC(C)C)cc4)cc3)c2)on1 | > 64 | 1 (≈ 1.97 µM) | > 64 | 16 (≈ 31.5 µM)
CCOC(=O)c1cc(/C=C/c2c(Cl)cncc2Cl)on1 | 4 (≈ 12.8 µM) | 8 (≈ 25.5 µM) | 8 (≈ 25.5 µM) | 1 (≈ 3.19 µM)
CN[C@@H]1[C@H](O[C@H]2[C@H](O[C@H]3[C@H](O)[C@@H](O)[C@H](N=C(N)N)[C@@H](O)[C@@H]3N=C(N)N)O[C@@H](C)[C@]2(O)C=O)O[C@@H](CO)[C@H](O)[C@H]1O [STREPTOMYCIN] | 1 (≈ 1.72 µM) | > 64 | 2 (≈ 3.44 µM) | 1 (≈ 1.72 µM)
COC(=O)c1cc(-c2cccc(NC(=O)c3ccc(/C=C/C(=O)c4ccccc4C)cc3)c2)on1 | 1 (≈ 2.14 µM) | 2 (≈ 4.29 µM) | 0.12 (≈ 0.257 µM) | 0.25 (≈ 0.536 µM)
COC(=O)c1cc(-c2cccc(NC(=O)c3ccc(/C=C/C(=O)c4ccc(F)cc4F)cc3)c2)on1 | 1 (≈ 2.05 µM) | 2 (≈ 4.09 µM) | 0.12 (≈ 0.246 µM) | 0.25 (≈ 0.512 µM)
NNC(=O)c1ccncc1 [ISONIAZID] | > 64 | 0.03 (≈ 0.219 µM) | 0.03 (≈ 0.219 µM) | 0.03 (≈ 0.219 µM)
CCOC(=O)c1cc(-c2cccc(NC(=O)c3ccc(/C=C/C(=O)c4ccc(Cl)cc4)cc3)c2)on1 | 32 (≈ 63.9 µM) | 64 (≈ 128 µM) | 4 (≈ 7.99 µM) | 0.5 (≈ 0.998 µM)
CC[C@@H](CO)NCCN[C@@H](CC)CO [ETHAMBUTOL] | 4 (≈ 19.6 µM) | 1 (≈ 4.89 µM) | 32 (≈ 157 µM) | 1 (≈ 4.89 µM)
COC(=O)c1cc(-c2cccc(NC(=O)c3ccc(/C=C/C(=O)c4ccc(C)cc4)cc3)c2)on1 | 0.5 (≈ 1.07 µM) | 0.25 (≈ 0.536 µM) | > 64 | > 64
CO[C@H]1/C=C/O[C@@]2(C)Oc3c(C)c(O)c4c(O)c(c(/C=N/N5CCN(C)CC5)c(O)c4c3C2=O)NC(=O)/C(C)=C\C=C\[C@H](C)[C@H](O)[C@@H](C)[C@@H](O)[C@@H](C)[C@H](OC(C)=O)[C@@H]1C [RIFAMPIN] | 0.03 (≈ 0.0365 µM) | 0.03 (≈ 0.0365 µM) | 0.03 (≈ 0.0365 µM) | 64 (≈ 77.8 µM)
COC(=O)c1cc(-c2ccc(NC(=O)c3ccc(/C=C/C(=O)c4ccc(Cl)cc4)cc3)cc2)on1 | 0.5 (≈ 1.03 µM) | 8 (≈ 16.4 µM) | 0.25 (≈ 0.513 µM) | 0.5 (≈ 1.03 µM)
COC(=O)c1cc(-c2cccc(NC(=O)c3ccc(/C=C/C(=O)c4ccc(OC)cc4OC)cc3)c2)on1 | 2 (≈ 3.9 µM) | 2 (≈ 3.9 µM) | 0.25 (≈ 0.488 µM) | 0.25 (≈ 0.488 µM)
CCCOc1ccc(C(=O)/C=C/c2ccc(C(=O)Nc3cccc(-c4cc(C(=O)OC)no4)c3)cc2)cc1 | 0.12 (≈ 0.235 µM) | 2 (≈ 3.92 µM) | 0.06 (≈ 0.118 µM) | 0.03 (≈ 0.0588 µM)
COC(=O)c1cc(-c2cccc(NC(=O)c3ccc(/C=C/C(=O)c4ccccc4Cl)cc3)c2)on1 | 1 (≈ 2.05 µM) | 0.5 (≈ 1.03 µM) | 0.25 (≈ 0.513 µM) | 0.25 (≈ 0.513 µM)
CCOc1ccc(C(=O)/C=C/c2ccc(C(=O)Nc3cccc(-c4cc(C(=O)OC)no4)c3)cc2)cc1 | 0.5 (≈ 1.01 µM) | 0.5 (≈ 1.01 µM) | 0.06 (≈ 0.121 µM) | 0.03 (≈ 0.0604 µM)
COC(=O)c1cc(-c2cccc(NC(=O)c3ccc(/C=C/C(=O)c4cccc(Cl)c4)cc3)c2)on1 | 0.5 (≈ 1.03 µM) | 0.5 (≈ 1.03 µM) | 0.12 (≈ 0.246 µM) | 0.5 (≈ 1.03 µM)
COC(=O)c1cc(-c2cccc(NC(=O)c3ccc(/C=C/C(=O)c4ccc(N5CCOCC5)cc4)cc3)c2)on1 | 0.12 (≈ 0.223 µM) | 2 (≈ 3.72 µM) | 0.12 (≈ 0.223 µM) | 0.12 (≈ 0.223 µM)
